Patent publication US6951848B2, “Functionalized heterocycles as modulators of chemokine receptor function and methods of use therefor” (Millennium Pharmaceuticals, Inc.,, priority 2001, dated 2005)
Structures can show the parent of a compound that is named as a salt.

test system: not given; assay: not given; conditions: not given

Structure (SMILES)	melting point
Cc1[nH]c2ccc(OCCN(C)C)cc2c1C(=O)O[C@@H](C)c1ccccc1 [Example 66, 5-(2-Dimethylamino-ethoxy)-2-methyl-1H-indole-3-carboxylic acid (S)-1-phenyl-ethyl ester]	135 to 140 °C
Cc1[nH]c2ccc(OCCN3CCCC3)cc2c1C(=O)OCc1ccccc1 [Example 69, 2-Methyl-5-(pyrrolidin-1-yl-ethoxy)-1H-indole-3-carboxylic acid benzyl ester]	110 to 116 °C
Cc1[nH]c2ccc(OCCN3CC(C)(C)C(C)(C)C3)cc2c1C(=O)OCc1ccccc1 [Example 14, 2-Methyl-5-[2-(3,3,4,4-tetramethyl-pyrrolidin-1-yl)-ethoxy]-1H-indole-3-carboxylic acid benzyl ester]	181 to 182 °C
Cc1[nH]c2ccc(OCCN3CCCCC3)cc2c1C(=O)OCc1ccccc1 [Example 12, 2-Methyl-5-(2-piperidin-1-yl-ethoxy)-1H-indole-3-carboxylic acid benzyl ester]	140 to 141 °C
Cc1[nH]c2ccc(CCN(C)C3CCOCC3)cc2c1C(=O)OCc1ccccc1 [Example 62, 2-Methyl-5-{2-[methyl-(tetrahydro-pyran-4-yl)-amino]-ethyl}-1H-indole-3-carboxylic acid benzyl ester]	109 to 111 °C
Cc1[nH]c2ccc(OCCN3CCCC3c3ccccc3)cc2c1C(=O)OCc1ccccc1 (stereo not drawn) [Example 15, 2-Methyl-5-[2-(2-phenyl-pyrrolidin-1-yl)-ethoxy]-1H -indole-3-carboxylic acid benzyl ester]	141 to 142 °C
Cc1[nH]c2ccc(OC(C)C(C)N3CCCC3)cc2c1C(=O)OCc1ccccc1 (stereo not drawn) [Example 70, 2-Methyl-5-(1-methyl-2-pyrrolidin-1-yl-propoxy)-1H-indole-3-carboxylic acid benzyl ester]	94 to 98 °C
Cc1[nH]c2ccc(CCN(C)C3CCCCC3)cc2c1C(=O)OCc1ccccc1 [Example 58, 5-[2-(Cyclohexyl-methyl-amino)-ethyl]-2-methyl-1H-indole-3-carboxylic acid benzyl ester]	122 to 124 °C
CCN(CC)CCc1ccc2[nH]c(C)c(C(=O)OCc3ccccc3)c2c1.Cl [Example 72, 5-(2-Diethylamino-ethyl)-2-methyl-1H-indole-3-carboxylic acid benzyl ester hydrochloride]	130 to 134 °C
Cc1[nH]c2ccc(OCCN3CCNCC3)cc2c1C(=O)OCc1ccccc1 (as salt: hydrochloride) [Example 2, 1-[2-(3-benzyloxycarbonyl-2-methyl-1H-indole-5-yloxy)-ethyl]-piperazin-1-ium; Chloride]	225 to 229 °C (dec.)
Cc1[nH]c2ccc(CCN3CCCCC3)cc2c1C(=O)OCc1ccccc1 [Example 59, 2-Methyl-5-(2-piperidin-1-yl-ethyl)-1H-indole-3-carboxylic acid benzyl ester]	159 to 161 °C
Cc1[nH]c2ccc(CCN(CC(C)C)CC(C)C)cc2c1C(=O)OCc1ccccc1 [Example 60, 5-(2-Diisobutylamino-ethyl)-2-methyl-1H-indole-3-carboxylic acid benzyl ester]	134 to 135 °C
Cc1[nH]c2ccc(OCCN(C(C)C)C(C)C)cc2c1C(=O)OCc1ccccc1 [Example 6, 5-(2-Diisopropylamino-ethoxy)-2-methyl-1H-indole-3-carboxylic acid benzyl ester]	121 to 123 °C
Cc1[nH]c2ccc(CCN3CCCC3)cc2c1C(=O)OCc1ccccc1.Cl [Example 56, 2-Methyl-5-(2-pyrrolidin-1-yl-ethyl)-1H-indole-3-carboxylic acid benzyl ester hydrochloride]	76 to 78 °C
CCN(CC)Cc1ccc2[nH]c(C)c(C(=O)OCc3ccccc3)c2c1 [Example 64, 5-Diethylaminomethyl-2-methyl-1H-indole-3-carboxylic acid benzyl ester]	106 to 108 °C
Cc1[nH]c2ccc(CCNC3CCCCC3)cc2c1C(=O)OCc1ccccc1 [Example 71, 5-(2-Cyclohexylamino-ethyl)-2-methyl-1H-indole-3-carboxylic acid benzyl ester]	97 to 100 °C
CNCCc1ccc2[nH]c(C)c(C(=O)OCc3ccccc3)c2c1 [Example 61, 2-Methyl-5-(2-methylamino-ethyl)-1H-indole-3-carboxylic acid benzyl ester]	65 to 68 °C

Structure (SMILES)	melting point
Cc1[nH]c2ccc(OCCN3CCC(C)C3)cc2c1C(=O)OCc1ccccc1 (stereo not drawn) [Example 4, 2-Methyl-5-[2-(3-methyl-pyrrolidin-1-yl)-ethoxy]-1H-indole-3-carboxylic acid benzyl ester]	121 to 122 °C
Cc1[nH]c2ccc(OCCN3CCCCCC3)cc2c1C(=O)OCc1ccccc1 [Example 11, 5-(2-Azepan-1-yl-ethoxy)-2-methyl-1H-indole-3-carboxylic acid benzyl ester]	141 to 142 °C
Cc1[nH]c2ccc(CN)cc2c1C(=O)OCc1ccccc1.Cl	260 to 261 °C
Cc1[nH]c2ccc(OCCN3CCN(C)CC3)cc2c1C(=O)OCc1ccccc1 [Example 3, 2-Methyl-5-[2-(4-methyl-piperazin-1-yl)-ethoxy]-1H-indole-3-carboxylic acid benzyl ester]	143 to 145 °C
Cc1[nH]c2ccc(CCN3CCN(C)CC3)cc2c1C(=O)OCc1ccccc1 [Example 57, 2-Methyl-5-[2-(4-methyl-piperazin-1-yl)-ethyl]-1H-indole-3-carboxylic acid benzyl ester]	167 to 168 °C
CCN(CC)CCOc1ccc2c(c1)c(C(=O)OCc1ccccc1)c(C)n2Cc1ccccc1 [Example 7, 1-Benzyl-5-(2-diethylamino-ethoxy)-2-methyl-1H-indole-3-carboxylic acid benzyl ester]	74 to 76 °C
Cc1[nH]c2ccc(OCCN3CCCC3c3cccnc3)cc2c1C(=O)OCc1ccccc1 (stereo not drawn) [Example 17, 2-Methyl-5-[2-(2-pyridin-3-yl-pyrrolidin-1-yl)-ethoxy]-1H-indole-3-carboxylic acid benzyl ester]	126 to 127 °C
CCN(CC)CCc1ccc2[nH]c(C)c(C(=O)O[C@@H](C)c3ccccc3)c2c1.Cl	95 to 97 °C
Cc1[nH]c2ccc(OCCCCN3CCCC3)cc2c1C(=O)OCc1ccccc1 [Example 10, 2-Methyl-5-(4-pyrrolidin-1-yl-butoxy)-1H-indole-3-carboxylic acid benzyl ester]	152 to 155 °C
Cc1[nH]c2ccc(OCCN3CCCC3)cc2c1C(=O)OC(C)c1ccccc1.Cl (stereo not drawn)	75 to 80 °C
CCN(CC)CCOc1ccc2c(c1)c(C(=O)OCc1ccccc1)c(C)n2C [Example 8, 1-Methyl-5-(2-diethylamino-ethoxy)-2-methyl-1H-indole-3-carboxylic acid benzyl ester]	73 to 74 °C
Cc1[nH]c2ccc(OCCN3CCN(C(=O)OC(C)(C)C)CC3)cc2c1C(=O)OCc1ccccc1 [Example 1, 5-[2-(4-tert-Butoxycarbonyl-piperazin-1-yl)-ethoxy]-2-methyl-1H-indole-3-carboxylic acid benzyl ester]	136 to 137 °C
CCCN(CCC)CCOc1ccc2[nH]c(C)c(C(=O)OCc3ccccc3)c2c1 [Example 18, 5-(2-Dipropylamino-ethoxy)-2-methyl-1H-indole-3-carboxylic acid benzyl ester]	123 to 125 °C
Cc1[nH]c2ccc(OCCN3CC[C@H](CO)C3)cc2c1C(=O)OCc1ccccc1 [Example 16, 5-[2-((S)-3-Hydroxymethyl-pyrrolidin-1-yl)-ethoxy]-2-methyl-1H -indole-3-carboxylic acid benzyl ester]	126 to 127 °C
CCC(Oc1ccc2[nH]c(C)c(C(=O)OCc3ccccc3)c2c1)C(=O)N(CC)CC (stereo not drawn) [Example 9, 5-(1-Diethylcarbamoyl-propoxy)-2-methyl-1H-indole-3-carboxylic acid benzyl ester]	129 to 131 °C
CCN(CC)CCOc1ccc2[nH]c(C)c(C(=O)OCc3ccccc3)c2c1 [Example 13, 5-(2-Diethylamino-ethoxy)-2-methyl-1H-indole-3-carboxylic acid benzyl ester]	125 to 126 °C
Cc1[nH]c2ccc(OCCN3CCOCC3)cc2c1C(=O)OC(C)c1ccccc1.Cl (stereo not drawn)	45 to 55 °C

molecular target: T1, CCR-5 (Homo sapiens, UniProt P51681); assay: 125I-gp120/sCD4/CCR-5 receptor binding assay; conditions: membranes from CCR-5/L 1.2 cells, 3 nM sCD4, 0.1 nM 125I-gp120 (HIV-1 JR-FL); read-out: IC50 for inhibition of binding of sCD-4/GP-120 to CCR-5
T1 construct: expressed in transfected cells; host or cells: L1.2 cells (CCR-5/L1.2 transfectants), membranes
T1 sequence (P51681 whole entry): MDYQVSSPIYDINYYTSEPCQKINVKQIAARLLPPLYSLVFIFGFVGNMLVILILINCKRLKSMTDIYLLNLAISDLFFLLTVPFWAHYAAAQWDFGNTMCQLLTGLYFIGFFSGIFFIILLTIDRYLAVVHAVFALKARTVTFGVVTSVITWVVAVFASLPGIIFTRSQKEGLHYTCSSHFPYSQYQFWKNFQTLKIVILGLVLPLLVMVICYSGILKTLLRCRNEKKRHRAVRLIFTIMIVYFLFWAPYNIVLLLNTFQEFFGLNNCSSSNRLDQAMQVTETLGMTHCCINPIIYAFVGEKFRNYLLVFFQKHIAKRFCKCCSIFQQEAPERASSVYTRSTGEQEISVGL
Description: CCR-5 Receptor Binding Assay The compounds of the present invention were evaluated using the following CCR-5 receptor binding assay. The ^125I-gp120/sCD4/CCR-5 binding assay was carried out similarly as described in Wu et al., Nature, 1996;384:179-183. Briefly, the envelope gp120 protein derived from HIV-1 JR-FL (Trkola et al., Nature, 1996;384:184-186), an M-tropic strain, was iodinated using solid phase lactoperoxidase to a specific activity of 20 μCi/μg. For each binding reaction (in a final volume of 100 μL binding buffer [50 mM HEPES, pH 7.5, 1 mM CaCl2, 5 mM MgCl2, and 0.5% BSA]), 25 μL (2.5 μg) of membranes prepared from CCR-5/L 1.2 cells were mixed with 25 μL (3 nM) sCD4, followed by 25 μL (0.1 nM) radio-labeled gp120 in the presence or absence of 25 μL compound dissolved in DMSO (final concentration of DMSO 0.5%). The reactions were incubated at room temperature for 45 to 60 minutes and stopped by transferring the mixture to GFB filter plates, which were then washed 3 to 4 times with binding buffer containing 0.5 M NaCl. The plates were dried and MicroScint scintillation fluid was added before counting. […] The compounds of Examples 56 and 66 had IC50s of about […]. […] Preferred compounds can inhibit the binding of sCD-4/GP-120 to CCR-5 with IC50s of about 10 μM to about 100 μM or about 1 nM to about 10 μM

Structure (SMILES)	IC50 [µM]
Cc1[nH]c2ccc(OCCN(C)C)cc2c1C(=O)O[C@@H](C)c1ccccc1 [Example 66, 5-(2-Dimethylamino-ethoxy)-2-methyl-1H-indole-3-carboxylic acid (S)-1-phenyl-ethyl ester]	~4.8
Cc1[nH]c2ccc(OCCN3CCCC3)cc2c1C(=O)OCc1ccccc1 [Example 69, 2-Methyl-5-(pyrrolidin-1-yl-ethoxy)-1H-indole-3-carboxylic acid benzyl ester]	20.3 ± 2.8
Cc1[nH]c2ccc(CCN(C)C3CCOCC3)cc2c1C(=O)OCc1ccccc1 [Example 62, 2-Methyl-5-{2-[methyl-(tetrahydro-pyran-4-yl)-amino]-ethyl}-1H-indole-3-carboxylic acid benzyl ester]	13.9 ± 1.6
Cc1[nH]c2ccc(NCCN3CCCC3)cc2c1C(=O)OCc1ccccc1 [Example 20, 2-Methyl-5-(2-pyrrolidine-1-yl-ethylamino)-1H-indole-3-carboxylic acid benzyl ester]	17.5
Cc1[nH]c2ccc(OC(C)C(C)N3CCCC3)cc2c1C(=O)OCc1ccccc1 (stereo not drawn) [Example 70, 2-Methyl-5-(1-methyl-2-pyrrolidin-1-yl-propoxy)-1H-indole-3-carboxylic acid benzyl ester]	5.52 ± 1.1
CCN(CC)CCc1ccc2[nH]c(C)c(C(=O)OCc3ccccc3)c2c1.Cl [Example 72, 5-(2-Diethylamino-ethyl)-2-methyl-1H-indole-3-carboxylic acid benzyl ester hydrochloride]	1.93 ± 0.32
Cc1[nH]c2ccc(CCN3CCCC3)cc2c1C(=O)OCc1ccccc1.Cl [Example 56, 2-Methyl-5-(2-pyrrolidin-1-yl-ethyl)-1H-indole-3-carboxylic acid benzyl ester hydrochloride]	~4.8
CCN(CC)CCOc1ccc2c(c1)c(C(=O)OCc1ccccc1)c(C)n2Cc1ccccc1 [Example 7, 1-Benzyl-5-(2-diethylamino-ethoxy)-2-methyl-1H-indole-3-carboxylic acid benzyl ester]	18.2
